Assay results published in US20240190892A1, “PLASMA KALLIKREIN INHIBITORS” (Merck Sharp & Dohme LLC, priority 2021, published 2024).

Columns and labels:
Coagulation factor XIa = Coagulation factor XIa (Homo sapiens (Human), UniProt P03951); assay: Factor XIa Assay; type: biochemical; details: human factor XIa 0.04 nM, substrate GPR-AFC, 30 min pre-incubation at 25° C., pH 7.4; read-out: FXIa IC50
Method: (§1) The effectiveness of a compound of the present invention as an inhibitor of Coagulation factor XIa can be determined using a relevant purified serine protease, and an appropriate synthetic substrate. The rate of hydrolysis of the chromogenic or fluorogenic substrate by the relevant serine protease was measured both in the absence and presence of compounds of the present invention. Assays were conducted at rt or at 37° C. […] A decrease in the rate of fluorescence change in the presence of inhibitor is indicative of enzyme inhibition. Such methods are known to one skilled in the art. The results of this assay are expressed as the half-maximal inhibitory concentrations (IC50), or the inhibitory constant, Ki.
Compounds were pre-incubated for 30 min at 25° C. with human (0.04 nM) factor XIa in 50 mM HEPES buffer with 150 mM sodium chloride, 5 mM calcium chloride, 0.1% PEG 8000, pH 7.4. factor XIa enzymatic activity was determined by addition of the substrate glycine-proline-arginine-7-amido-4-trifluoromethylcoumarin (GPR-AFC) and measurement of the fluorescence at 400/505 nm after a 60 min incubation at 25° C. The % inhibition for each data point was calculated from the data and analyzed using the log (inhibitor) vs. response four parameters equation to determine the half-maximal inhibitory concentrations (IC50). The IC50 were converted to equilibrium inhibitory constants (Ki) using the Cheng-Prusoff equation.

Human plasma kallikrein = Human plasma kallikrein (Homo sapiens (Human), UniProt P03952); assay: Plasma Kallikrein Assay; type: biochemical; details: purified Human plasma kallikrein 0.5 nM, substrate Acetyl-K-P-R-AFC, pH 7.4; read-out: PKal IC50
Method: as §1, with “plasma kallikrein” for “Coagulation factor XIa”
Plasma kallikrein determinations were made in 50 mM HEPES buffer at pH 7.4 containing 150 mM NaCl, 5 mM CaCl2, and 0.1% PEG 8000 (polyethylene glycol; Fisher Scientific). Determinations were made using purified Human plasma kallikrein at a final concentration of 0.5 nM (Enzyme Research Laboratories) and the synthetic substrate, Acetyl-K-P-R-AFC (Sigma #C6608) at a concentration of […].
Activity assays were performed by diluting a stock solution of substrate at least tenfold to a final concentration ≤0.2 Km into a solution containing enzyme or enzyme equilibrated with inhibitor. Times required to achieve equilibration between enzyme and inhibitor were determined in control experiments. The reactions were performed under linear progress curve conditions and fluorescence increase measured at 405 Ex/510 Em nm. Values were converted to percent inhibition of the control reaction (after subtracting 100% Inhibition value). IC50 was determined by inflection point from a four parameter logistic curve fit. Ki was calculated using the Cheng Prusoff equation, Ki=IC50/(1+[S]/Km)).

Human plasma kallikrein, sequence (P03952 391-638 limits assumed): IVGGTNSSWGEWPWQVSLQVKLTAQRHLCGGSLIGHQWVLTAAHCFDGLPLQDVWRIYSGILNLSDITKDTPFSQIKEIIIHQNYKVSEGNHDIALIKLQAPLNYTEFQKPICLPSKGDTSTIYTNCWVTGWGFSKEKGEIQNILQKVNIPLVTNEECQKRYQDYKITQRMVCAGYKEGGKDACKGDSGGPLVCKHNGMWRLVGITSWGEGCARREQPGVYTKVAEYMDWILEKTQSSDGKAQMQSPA
Human plasma kallikrein, sequence (P03952 20-390 partner limits assumed): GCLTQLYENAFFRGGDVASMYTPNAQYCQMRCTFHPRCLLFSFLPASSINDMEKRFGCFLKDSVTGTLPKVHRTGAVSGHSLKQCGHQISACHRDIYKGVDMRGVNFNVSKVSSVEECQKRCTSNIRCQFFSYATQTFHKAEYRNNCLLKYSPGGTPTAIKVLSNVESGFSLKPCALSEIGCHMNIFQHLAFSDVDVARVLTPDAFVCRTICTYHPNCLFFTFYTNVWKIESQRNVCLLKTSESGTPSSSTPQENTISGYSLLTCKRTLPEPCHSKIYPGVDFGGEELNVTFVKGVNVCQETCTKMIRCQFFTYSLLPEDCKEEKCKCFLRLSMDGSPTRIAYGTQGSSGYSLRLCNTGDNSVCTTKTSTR
Coagulation factor XIa, sequence (P03951 388-625 limits assumed): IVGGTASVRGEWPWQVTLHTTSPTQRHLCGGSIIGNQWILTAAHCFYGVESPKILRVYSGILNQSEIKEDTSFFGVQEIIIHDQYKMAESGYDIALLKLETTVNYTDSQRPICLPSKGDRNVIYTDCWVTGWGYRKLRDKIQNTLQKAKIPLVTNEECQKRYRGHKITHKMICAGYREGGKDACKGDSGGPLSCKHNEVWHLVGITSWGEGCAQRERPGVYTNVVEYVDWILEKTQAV
Coagulation factor XIa, sequence (P03951 19-387 partner limits assumed): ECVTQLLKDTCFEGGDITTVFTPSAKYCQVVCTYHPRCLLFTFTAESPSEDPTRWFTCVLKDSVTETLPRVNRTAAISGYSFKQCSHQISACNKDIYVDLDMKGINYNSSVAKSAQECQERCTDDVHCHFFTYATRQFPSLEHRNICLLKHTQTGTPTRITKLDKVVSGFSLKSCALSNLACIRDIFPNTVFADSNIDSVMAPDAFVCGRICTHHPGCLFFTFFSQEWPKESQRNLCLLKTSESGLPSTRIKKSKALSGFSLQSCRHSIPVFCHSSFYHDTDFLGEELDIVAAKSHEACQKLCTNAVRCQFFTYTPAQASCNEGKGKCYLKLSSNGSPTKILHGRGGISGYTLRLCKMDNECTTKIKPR

Compound	IC50 (Coagulation factor XIa)	IC50 (Human plasma kallikrein)
O=C1Nc2ccc(Cl)c(F)c2[C@]2(CCN(c3cc(C(=O)NCc4ccc(CN5CC(F)C5)cc4)cnn3)C2)O1 [Example 47, (S)-6-(6-chloro-5-fluoro-2-oxo-1,2-dihydrospiro[benzo[d][1,3]oxazine-4,3′-pyrrolidin]-1′-yl)-N-(4-((3-fluoroazetidin-1-yl)methyl)benzyl)pyridazine-4-carboxamide]	10 µM	0.0138 µM
O=C1Nc2ccc(Cl)c(F)c2[C@]2(CCN(c3cncc(C(=O)NCc4ccc(N5CC[C@@H](F)C5)nc4)n3)C2)O1 [Example 39, (S)-6-(6-Chloro-5-fluoro-2-oxo-1,2-dihydrospiro[benzo[d][1,3]oxazine-4,3′-pyrrolidin]-1′-yl)-N-((6-((R)-3-fluoropyrrolidin-1-yl)pyridin-3-yl)methyl)pyrazine-2-carboxamide]	10 µM	0.0258 µM
O=C1Nc2ccc(Cl)c(F)c2[C@]2(CCN(c3cncc(C(=O)NCc4ccc(N5CCC5)nc4)n3)C2)O1 [Example 37, (S)-N-((6-(Azetidin-1-yl)pyridin-3-yl)methyl)-6-(6-chloro-5-fluoro-2-oxo-1,2dihydrospiro[benzo[d][1,3]oxazine-4,3′-pyrrolidin]-1′-yl)pyrazine-2-carboxamide]	10 µM	0.0444 µM
C[C@H]1CCN(c2ccc(CNC(=O)c3cncc(N4CC[C@]5(C4)OC(=O)Nc4ccc(Cl)c(F)c45)c3)cn2)C1 [Example 3, (S)-5-(6-Chloro-5-fluoro-2-oxo-1,2-dihydrospiro[benzo[d][1,3]oxazine-4,3′-pyrrolidin]-1′-yl)-N-((6-((S)-3-methylpyrrolidin-1-yl)pyridin-3-yl)methyl)nicotinamide]	10 µM	0.0095 µM
COCC1CN(c2ccc(CNC(=O)c3cncc(N4CC[C@]5(C4)OC(=O)Nc4ccc(Cl)c(F)c45)n3)cn2)C1 [Example 34, (S)-6-(6-Chloro-5-fluoro-2-oxo-1,2-dihydrospiro[benzo[d][1,3]oxazine-4,3′-pyrrolidin]-1′-yl)-N-((6-(3-(methoxymethyl)azetidin-1-yl)pyridin-3-yl)methyl)pyrazine-2-carboxamide]	10 µM	0.0054 µM
CN1CCCC1c1ccc(CNC(=O)c2cnnc(N3CC[C@]4(C3)OC(=O)Nc3ccc(Cl)c(F)c34)c2)cn1 (stereo in doubt) [Example 11, (S)-6-(6-Chloro-5-fluoro-2-oxo-1,2-dihydrospiro[benzo[d][1,3]oxazine-4,3′-pyrrolidin]-1′-yl)-N-((6-(1-methylpyrrolidin-2-yl)pyridin-3-yl)methyl)pyridazine-4-carboxamide]	10 µM	0.0039 µM
C[C@H]1CCN(c2ccc(CNC(=O)c3cncc(N4CC[C@]5(C4)OC(=O)Nc4ccc(Cl)c(F)c45)n3)cn2)C1 [Example 1, (S)-6-(6-Chloro-5-fluoro-2-oxo-1,2-dihydrospiro[benzo[d][1,3]oxazine-4,3′-pyrrolidin]-1′-yl)-N-((6-((S)-3-methylpyrrolidin-1-yl)pyridin-3-yl)methyl)pyrazine-2-carboxamide]	10 µM	0.0193 µM
Cc1cnn(Cc2ccc(CNC(=O)c3cncc(N4CC[C@]5(C4)OC(=O)Nc4ccc(Cl)c(F)c45)c3)cc2)c1 [Example 26, (S)-5-(6-Chloro-5-fluoro-2-oxo-1,2-dihydrospiro[benzo[d][1,3]oxazine-4,3′-pyrrolidin]-1′-yl)-N-(4-((4-methyl-1H-pyrazol-1-yl)methyl)benzyl)nicotinamide]	10 µM	0.0031 µM

Continued by falling IC50 (Coagulation factor XIa), values first:

IC50 (Coagulation factor XIa)	IC50 (Human plasma kallikrein)	Compound
10 µM	0.0354 µM	O=C1Nc2ccc(Cl)c(F)c2[C@]2(CCN(c3cncc(C(=O)NCc4ccc(N5CCCCC5)nc4)n3)C2)O1 [Example 41, (S)-6-(6-Chloro-5-fluoro-2-oxo-1,2-dihydrospiro[benzo[d][1,3]oxazine-4,3′-pyrrolidin]-1′-yl)-N-((6-(piperidin-1-yl)pyridin-3-yl)methyl)pyrazine-2-carboxamide]
10 µM	0.0304 µM	O=C1Nc2ccc(Cl)c(F)c2[C@]2(CCN(c3cc(C(=O)NCc4ccc(N5CCC(F)(F)C5)cc4F)cnn3)C2)O1 [Example 8, (S)-6-(6-Chloro-5-fluoro-2-oxo-1,2-dihydrospiro[benzo[d][1,3]oxazine-4,3′-pyrrolidin]-1′-yl)-N-(4-(3,3-difluoropyrrolidin-1-yl)-2-fluorobenzyl)pyridazine-4-carboxamide]
10 µM	0.0005 µM	Cc1cnn(Cc2ccc(CNC(=O)c3cnnc(N4CC[C@]5(C4)OC(=O)Nc4ccc(Cl)c(F)c45)c3)cc2)c1 [Example 23, (S)-6-(6-Chloro-5-fluoro-2-oxo-1,2-dihydrospiro[benzo[d][1,3]oxazine-4,3′-pyrrolidin]-1′-yl)-N-(4-((4-methyl-1H-pyrazol-1-yl)methyl)benzyl)pyridazine-4-carboxamide]
10 µM	0.0075 µM	O=C1Nc2ccc(Cl)c(F)c2[C@]2(CCN(c3cc(C(=O)NCc4ccc(N5CCC(C(F)(F)F)C5)nc4)cnn3)C2)O1 (stereo in doubt) [Example 9, (S)-6-(6-Chloro-5-fluoro-2-oxo-1,2-dihydrospiro[benzo[d][1,3]oxazine-4,3′-pyrrolidin]-1′-yl)-N-((6-(3-(trifluoromethyl)pyrrolidin-1-yl)pyridin-3-yl)methyl)pyridazine-4-carboxamide]
10 µM	0.05 µM	O=C1Nc2ccc(Cl)c(F)c2[C@]2(CCN(c3cc(C(=O)NCc4ccc(Cn5ccccc5=O)cc4)ccn3)C2)O1 [Example 16, (S)-2-(6-Chloro-5-fluoro-2-oxo-1,2-dihydrospiro[benzo[d][1,3]oxazine-4,3′-pyrrolidin]-1′-yl)-N-(4-((2-oxopyridin-1(2H)-yl)methyl)benzyl)isonicotinamide]
10 µM	0.0013 µM	Cc1cnn(Cc2ccc(CNC(=O)c3cncc(N4CC[C@]5(C4)OC(=O)Nc4ccc(Cl)c(F)c45)c3)cn2)c1 [Example 20, (S)-5-(6-Chloro-5-fluoro-2-oxo-1,2-dihydrospiro[benzo[d][1,3]oxazine-4,3′-pyrrolidin]-1′-yl)-N-((6-((4-methyl-1H-pyrazol-1-yl)methyl)pyridin-3-yl)methyl)nicotinamide]
10 µM	0.0209 µM	O=C1Nc2ccc(Cl)c(F)c2[C@]2(CCN(c3cncc(C(=O)NCc4ccc5ccc(=O)oc5c4)n3)C2)O1 [Example 30, (S)-6-(6-Chloro-5-fluoro-2-oxo-1,2-dihydrospiro[benzo[d][1,3]oxazine-4,3′-pyrrolidin]-1′-yl)-N-((2-oxo-2H-chromen-7-yl)methyl)pyrazine-2-carboxamide]
10 µM	0.0254 µM	O=C1Nc2ccc(Cl)c(F)c2[C@]2(CCN(c3cncc(C(=O)NCc4ccc(N5CC(F)C5)nc4)n3)C2)O1 [Example 33, (S)-6-(6-Chloro-5-fluoro-2-oxo-1,2-dihydrospiro[benzo[d][1,3]oxazine-4,3′-pyrrolidin]-1′-yl)-N-((6-(3-fluoroazetidin-1-yl)pyridin-3-yl)methyl)pyrazine-2-carboxamide]
10 µM	0.0128 µM	Cc1cnn(Cc2ccc(CNC(=O)c3cncc(N4CC[C@]5(C4)OC(=O)Nc4ccc(Cl)c(F)c45)n3)cc2)c1 [Example 18, (S)-6-(6-Chloro-5-fluoro-2-oxo-1,2-dihydrospiro[benzo[d][1,3]oxazine-4,3′-pyrrolidin]-1′-yl)-N-(4-((4-methyl-1H-pyrazol-1-yl)methyl)benzyl)pyrazine-2-carboxamide]
10 µM	0.0068 µM	O=C1Nc2ccc(Cl)c(F)c2[C@]2(CCN(c3cncc(C(=O)NCc4ccc(N5CCCC5)nc4)n3)C2)O1 [Example 2, (S)-6-(6-Chloro-5-fluoro-2-oxo-1,2-dihydrospiro[benzo[d][1,3]oxazine-4,3′-pyrrolidin]-1′-yl)-N-((6-(pyrrolidin-1-yl)pyridin-3-yl)methyl)pyrazine-2-carboxamide]
